Measurements reported in US4727150A, “Pyridyl methylsulfinyl benzimidazole derivatives” (Takeda Chemical Industries, Ltd., priority 1984, dated 1988).

What follows are compounds tested on gastric mucosa (assay: Ethanol-induced gastric mucosal injury in rats (action of protecting gastric mucosa)). Conditions: Rattus norvegicus, po; 6 rats per group; 1, 3, 10 and 30 mg/kg into stomach; 100% ethanol 1 ml orally 30 min later; lesions measured 60 min after ethanol; read-out: Action of protecting gastric mucosa ID50.
Format: in vivo, Male Sprague-Dawley rats
Method: As a method of determining the protecting ability of gastric mucosa, gastric mocosal injury induced by ethanol [Robert A., Gastroenterology 77, 761 (1979)] is often used. This method was applied to evaluation of the compounds of this invention. Male Sprague-Dawley rats of 7-weeks old were fasted for 24 hours. These animals were administered test compounds into stomach by using a gastric tube. After 30 minutes, 1 ml of 100% ethanol was administered orally. The animals were killed by carbon dioxide gas 60 minutes after ethanol administration. The stomach was removed together with the lower part of esophagus and the duodenum. The esophagus was clipped, 10 ml of 1% formalin solution was instilled into the stomach from the duodenum, and then the duodenum was clipped. The whole stomach was immersed in 1% formalin solution. About 15 minutes later, the stomachs were opened along the greater curvature. The length of the lesions which occurred in the gastric antral mucosa was measured under a dissecting microscope with a square-grid eye piece (×10). The sum total length of the individual lesions in each animal was measured, and the average value per group was calculated. Based on the difference between the average value of each group and that of the control group, the inhibition rate was determined. The test compound was suspended in a 5% gum arabic solution, and administered in a volume of 2 ml/kg. | ^(a) Using 6 rats per group, each of the test compounds was | administered in a dose of 1, 3, 10 and 30 mg/kg to determine ID50.
`CC(C)Oc1ccnc(C[S+]([O-])c2nc3cc(C(F)(F)F)ccc3[nH]2)c1` (centres unmarked) showed an ED50 of 5.8 mg/kg. With `CCCOc1ccnc(C[S+]([O-])c2nc3ccccc3[nH]2)c1C` (centres unmarked) [2-[3-methyl-4-propoxy-2-pyridyl)methylsulfinylbenzimidazole] the ED50 was 12.5 mg/kg. With `COc1ccnc(C[S+]([O-])c2nc3cc(C(F)(F)F)ccc3[nH]2)c1C` (centres unmarked) [R^1 =5-CF3, R^2 =CH3, R^3 =CH3, R^4 =H, reference compound] the ED50 was 24 mg/kg. `CC(C)Oc1ccnc(C[S+]([O-])c2nc3cc(F)ccc3[nH]2)c1` (centres unmarked) [R^1 =5-F, R^2 =H, R^3 =CH(CH3)2, R^4 =H] gave an ED50 of 8.8 mg/kg. With `CCCOc1ccnc(C[S+]([O-])c2nc3ccccc3[nH]2)c1` (centres unmarked) [R^1 =H, R^2 =H, R^3 =(CH2)2 CH3, R^4 =H] the ED50 was 7.2 mg/kg. In the case of `CCCCOc1ccnc(C[S+]([O-])c2nc3ccccc3[nH]2)c1` (centres unmarked) [R^1 =H, R^2 =H, R^3 =(CH2)3 CH3, R^4 =H], the ED50 is reported as 9.8 mg/kg. For `CCCCCCOc1ccnc(C[S+]([O-])c2nc3ccccc3[nH]2)c1` (centres unmarked) [R^1 =H, R^2 =H, R^3 =(CH2)5 CH3, R^4 =H], the ED50 was 1.6 mg/kg. In the case of `CCCCCCCCOc1ccnc(C[S+]([O-])c2nc3ccccc3[nH]2)c1` (centres unmarked) [R^1 =H, R^2 =H, R^3 =(CH2)7 CH3, R^4 =H], the ED50 is reported as 1.6 mg/kg. Work on `CC(C)Oc1ccnc(C[S+]([O-])c2nc3ccccc3[nH]2)c1` (centres unmarked) [R^1 =H, R^2 =H, R^3 =CH(CH3)2, R^4 =H] yielded an ED50 of 1.3 mg/kg. With `COc1ccc2[nH]c([S+]([O-])Cc3ncc(C)c(OC)c3C)nc2c1` (centres unmarked) [reference compound] the ED50 was 22 mg/kg.

The compounds below were run on mice (assay: Oral toxicity in mice). Conditions: oral administration, 500 mg/kg.
Format: in vivo
With `CCCOc1ccnc(C[S+]([O-])c2nc3ccccc3[nH]2)c1` (centres unmarked) [R^1 =H, R^2 =H, R^3 =(CH2)2 CH3, R^4 =H] the fatal effect was “no fatal effect”.
